Patent US4036840A, “2-Substituted-s-triazolo[1,5a]pyrimidines” (ICN Pharmaceuticals, priority 1975, dated 1977)

Each compound was assayed on 3',5'-Cyclic AMP phosphodiesterase (PDE) from lung (assay: 3',5'-Cyclic AMP phosphodiesterase (PDE) inhibition, rabbit lung enzyme (Fraction II, low Km)). Conditions: relative to theophylline, cAMP about 1.7 × 10^-7 M, 30° C., 10 minutes, pH 7.5.
Type: biochemical

Row | PDE Lung; α (I50 theophylline / I50 compound) | Structure (SMILES)
1 | 2.00 | Cc1cccc(CSc2nc3nc(C)cc(C)n3n2)c1 [Compound 14]
2 | 0.10 | Cc1cc(C)n2nc(SCC(C)C)nc2n1 [Compound 10]
3 | 2.50 | Cc1cc(C)n2nc(SCCc3ccccc3)nc2n1 [Compound 23]
4 | 2.00 | Cc1cc(C)n2nc(SCc3ccc4ccccc4n3)nc2n1 [Compound 20]
5 | 8.00 | Cc1cc(N(C)C)n2nc(SCc3ccccc3)nc2n1 [Compound 28]
6 | 7.70 | Cc1cc(N2CCOCC2)n2nc(SCc3ccccc3)nc2n1 [Compound 31]
7 | 3.50 | Cc1cc(C)n2nc(SCc3ccccc3C)nc2n1 [Compound 15]
8 | 0.90 | CCCSc1nc2nc(C)cc(C)n2n1 [Compound 7]
9 | 1.20 | Cc1cc(C)n2nc(SCc3ccc(C(=O)O)cc3)nc2n1 [Compound 12]
10 | 0.50 | CSc1nc2nc(C)cc(C)n2n1 [Compound 9]
11 | 6.20 | Cc1ccc(CSc2nc3nc(C)cc(C)n3n2)cc1 [Compound 13]
12 | 0.10 | Cc1cc(C)n2nc(SC(C)C)nc2n1 [Compound 8]
13 | 5.30 | Cc1cc(NN(C)C)n2nc(SCc3ccccc3)nc2n1 [Compound 33]
14 | 10.0 | Cc1cc(N2CCCCC2)n2nc(SCc3ccccc3)nc2n1 [Compound 30]
15 | 4.00 | Cc1cc(Cl)n2nc(SCc3ccccc3)nc2n1 [Compound 25, 2-benzylthio-7-chloro-5-methyl-s-triazolo[1,5a]pyrimidine]
16 | 4.00 | Cc1cc(C)n2nc(SCc3ccc(Cl)cc3)nc2n1 [Compound 4, 2-(p-chlorobenzylthio)-5,7-dimethyl-s-triazolo[1,5a]pyrimidine]
17 | 0.00 | CCOC(=O)c1cnc2nc(SCc3ccccc3)nn2c1O [Compound 34, 2-benzylthio-6-carbethoxy-7-hydroxy-s-triazolo [1,5a]pyrimidine]
18 | 0.50 | CCOC(=O)C(Sc1nc2nc(C)cc(C)n2n1)C(=O)OCC [Compound 11]
19 | 0.80 | Cc1cc(C)n2nc(SCc3ccncc3)nc2n1 [Compound 18]
20 | 0.60 | Cc1cc(C)n2nc(SCC3CCCO3)nc2n1 (stereo not drawn) [Compound 22]
21 | 2.00 | CCCNc1cc(C)nc2nc(SCc3ccccc3)nn12 [Compound 26]
22 | 3.2 | CCOC(=O)c1ccc(CSc2nc3nc(C)cc(C)n3n2)o1 [Compound 21]
23 | 1.17 | Cc1cc(C)n2nc(SCc3cccnc3)nc2n1 [Compound 19]
24 | 6.90 | CCOC(=O)c1cnc2nc(SCc3ccccc3)nn2c1N1CCOCC1 [Compound 36]

The compounds below were run on 3',5'-Cyclic AMP phosphodiesterase (PDE) from kidney (assay: 3',5'-Cyclic AMP phosphodiesterase (PDE) inhibition, rabbit kidney enzyme (Fraction II, low Km)). Conditions: relative to theophylline, cAMP about 1.7 × 10^-7 M, 30° C., 10 minutes, pH 7.5.
Type: biochemical

Row | PDE Kidney; α (I50 theophylline / I50 compound) | Structure (SMILES)
25 | 0.70 | Cc1cccc(CSc2nc3nc(C)cc(C)n3n2)c1 [Compound 14]
26 | 0.50 | Cc1cc(C)n2nc(SCC(C)C)nc2n1 [Compound 10]
27 | 2.50 | Cc1cc(C)n2nc(SCCc3ccccc3)nc2n1 [Compound 23]
28 | 0.70 | Cc1cc(C)n2nc(SCc3ccc4ccccc4n3)nc2n1 [Compound 20]
29 | 3.40 | Cc1cc(N(C)C)n2nc(SCc3ccccc3)nc2n1 [Compound 28]
30 | 4.80 | Cc1cc(N2CCOCC2)n2nc(SCc3ccccc3)nc2n1 [Compound 31]
31 | 4.00 | Cc1cc(C)n2nc(SCc3ccccc3C)nc2n1 [Compound 15]
32 | 1.00 | CCCSc1nc2nc(C)cc(C)n2n1 [Compound 7]
33 | 0.70 | Cc1cc(C)n2nc(SCc3ccc(C(=O)O)cc3)nc2n1 [Compound 12]
34 | 0.25 | CSc1nc2nc(C)cc(C)n2n1 [Compound 9]
35 | 1.00 | Cc1ccc(CSc2nc3nc(C)cc(C)n3n2)cc1 [Compound 13]
36 | 1.30 | Cc1cc(C)n2nc(SC(C)C)nc2n1 [Compound 8]
37 | 8.00 | Cc1cc(NN(C)C)n2nc(SCc3ccccc3)nc2n1 [Compound 33]
38 | 3.20 | Cc1cc(N2CCCCC2)n2nc(SCc3ccccc3)nc2n1 [Compound 30]
39 | 1.40 | Cc1cc(Cl)n2nc(SCc3ccccc3)nc2n1 [Compound 25, 2-benzylthio-7-chloro-5-methyl-s-triazolo[1,5a]pyrimidine]
40 | 4.0 | Cc1cc(C)n2nc(SCc3ccc(Cl)cc3)nc2n1 [Compound 4, 2-(p-chlorobenzylthio)-5,7-dimethyl-s-triazolo[1,5a]pyrimidine]
41 | 0.00 | CCOC(=O)c1cnc2nc(SCc3ccccc3)nn2c1O [Compound 34, 2-benzylthio-6-carbethoxy-7-hydroxy-s-triazolo [1,5a]pyrimidine]
42 | 0.00 | CCOC(=O)C(Sc1nc2nc(C)cc(C)n2n1)C(=O)OCC [Compound 11]
43 | 0.70 | Cc1cc(C)n2nc(SCc3ccncc3)nc2n1 [Compound 18]
44 | 0.00 | Cc1cc(C)n2nc(SCC3CCCO3)nc2n1 (stereo not drawn) [Compound 22]
45 | 0.90 | CCCNc1cc(C)nc2nc(SCc3ccccc3)nn12 [Compound 26]
46 | 1.25 | CCOC(=O)c1ccc(CSc2nc3nc(C)cc(C)n3n2)o1 [Compound 21]
47 | 0.00 | Cc1cc(C)n2nc(SCc3cccnc3)nc2n1 [Compound 19]
48 | 2.90 | CCOC(=O)c1cnc2nc(SCc3ccccc3)nn2c1N1CCOCC1 [Compound 36]
